Test results from paper PMC10226132, “First-in-Class Selective Inhibitors of the Lysine Acetyltransferase KAT8” (Journal of Medicinal Chemistry, 2023).
Where two headings read alike, the source gives them in different places.

Legend:
Format in all cases: biochemical
KAT8 = target: T1, KAT8 (Homo sapiens, UniProt Q9H7Z6); assay: Radioactive KAT8 inhibition assay
T1 construct: using the previously purified KAT8 (173–458, 5 nM); 6xHis tag with TEV protease cleavage site (N, cleaved yes); made in house; host or cells: E. coli BL21(DE3)
T1 sequence (Q9H7Z6 173-458): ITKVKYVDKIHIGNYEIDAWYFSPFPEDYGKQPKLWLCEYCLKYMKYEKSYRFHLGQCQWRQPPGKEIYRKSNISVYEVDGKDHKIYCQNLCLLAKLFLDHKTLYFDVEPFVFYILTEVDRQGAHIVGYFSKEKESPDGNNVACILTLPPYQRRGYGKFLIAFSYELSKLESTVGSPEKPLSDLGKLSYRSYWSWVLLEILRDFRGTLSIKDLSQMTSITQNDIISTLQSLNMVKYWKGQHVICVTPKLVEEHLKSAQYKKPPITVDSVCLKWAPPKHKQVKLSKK
Description: Purified KAT8 was incubated with the relevant inhibitor (1% DMSO final) in a 2-fold serial dilution starting at 200 μM for 20 min at rt. Then, [^3H]Ac-CoA and biotinylated peptide were added to a total assay volume of 50 μL and the reaction mixture was incubated at rt for 4 h. The reaction was stopped, and the mixture was transferred to a 96-well streptavidin scintillant coated FlashPlate (Perkin Elmer) and incubated for 60 min at rt. The FlashPlate was washed with 0.1% Tween-20, and the liquid scintillation counting (MicroBeta Microplate Counter, Perkin Elmer) was employed to measure the radioactive signal. Experiments were performed in biological triplicates. Signal reduction compared to control was plotted (as inhibition percentage) as a function of compound concentration and fitted by nonlinear regression (GraphPad Prism 8.0) finally yielding the IC50 values.

KAT3B = target: T2, KAT3B (Homo sapiens, UniProt Q09472); assay: HotSpot KAT assay, KAT3B
T2 construct: KAT3B (aa 1284–1672, 1 nM); purchased Reaction Biology Corporation
T2 sequence (Q09472 1284-1672): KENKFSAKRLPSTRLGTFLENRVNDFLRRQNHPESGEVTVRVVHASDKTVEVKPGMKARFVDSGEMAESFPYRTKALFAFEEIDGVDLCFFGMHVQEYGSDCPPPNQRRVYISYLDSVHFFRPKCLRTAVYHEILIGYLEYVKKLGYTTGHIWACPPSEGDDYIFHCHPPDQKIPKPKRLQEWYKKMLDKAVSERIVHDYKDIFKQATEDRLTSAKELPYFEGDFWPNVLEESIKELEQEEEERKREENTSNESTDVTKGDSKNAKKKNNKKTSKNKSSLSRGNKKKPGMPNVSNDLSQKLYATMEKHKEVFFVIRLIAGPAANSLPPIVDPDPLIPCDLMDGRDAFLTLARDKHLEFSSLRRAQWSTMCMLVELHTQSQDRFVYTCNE
Description: The effects of the compounds on other KATs were determined using the HotSpot KAT assay (Reaction Biology Corporation, Malvern, PA, USA) according to the supplier’s procedure. […] Histone peptide acetylation was assessed by liquid scintillation counting using a Tri-Carb 2800TR Liquid Scintillation Analyzer (Perkin Elmer). Experiments were performed in biological triplicates. Signal reduction compared to control was plotted (as inhibition percentage) as a function of compound concentration. In cases in which an IC50 was calculated, the values were fitted by nonlinear regression (GraphPad Prism 8.0).

KAT2B = target: T3, KAT2B (Homo sapiens, UniProt Q92831); assay: HotSpot KAT assay, KAT2B; conditions: enzyme 25 nM; NI = no inhibition at 200 μM; mean ± SD of three independent experiments
T3 construct: KAT2B (aa 492–658, 25 nM); purchased Reaction Biology Corporation
T3 sequence (Q92831 492-658): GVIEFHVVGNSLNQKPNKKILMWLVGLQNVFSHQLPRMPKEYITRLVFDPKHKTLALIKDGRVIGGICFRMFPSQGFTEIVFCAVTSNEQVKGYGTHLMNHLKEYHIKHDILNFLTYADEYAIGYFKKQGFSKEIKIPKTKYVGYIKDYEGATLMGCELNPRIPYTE
Description: The effects of the compounds on other KATs were determined using the HotSpot KAT assay (Reaction Biology Corporation, Malvern, PA, USA) according to the supplier’s procedure. The recombinant catalytic domains of human KAT2A (aa 323–837, 15 nM), KAT2B (aa 492–658, 25 nM), KAT3B (aa 1284–1672, 1 nM), KAT6A (aa 488–778, 10 nM), KAT6B (aa 657–1069, 10 nM), and full length human KAT5 (25 nM) and KAT7 (25 nM) were used. Each enzyme was incubated with the relevant histone peptide [H3 peptide for KAT2A, KAT2B, KAT3B, KAT6A, and KAT7 (2.5–5 μM, depending on the KAT isoform); H2A peptide for KAT5 (1.25 μM); H4 peptide for KAT6B (2.5 μM)] as a substrate and radio-isotope-labeled [^3H]Acetyl-CoA (0.2–1.5 μM, depending on the KAT isoform) as an acetyl donor in the assay buffer [50 mM Tris–HCl (pH 8.0), 50 mM NaCl, 0.1 mM EDTA, 1 mM DTT, 0.1 mM PMSF, 1% DMSO] for 1 h at 30 °C in the presence or absence of various compounds (1% DMSO final) titrated in a 2-fold serial dilution starting at 200 μM. Histone peptide acetylation was assessed by liquid scintillation counting using a Tri-Carb 2800TR Liquid Scintillation Analyzer (Perkin Elmer). Experiments were performed in biological triplicates. Signal reduction compared to control was plotted (as inhibition percentage) as a function of compound concentration. In cases in which an IC50 was calculated, the values were fitted by nonlinear regression (GraphPad Prism 8.0).

[1] = read-out: IC50 KAT8 (5 nM), enzyme 5 nM, 2-fold serial dilution from 200 μM, NI = no inhibition at 200 μM, mean ± SD of three independent experiments
[2] = read-out: IC50 KAT3B (1 nM), enzyme 1 nM, NI = no inhibition at 200 μM, mean ± SD of three independent experiments

## CC1=NN(c2ccc(C(=O)O)cc2)C(=O)C1=Cc1ccco1 (mixture of isomers) [Compound 20, 4-(4-(Furan-2-ylmethylene)-3-methyl-5-oxo-4,5-dihydro-1H-pyrazol-1-yl)benzoic Acid]
KAT8
  IC50: 16.8 ± 0.9 µM
KAT3B
  IC50: 6.3 ± 0.4 µM
KAT2B
  IC50: > 200 µM

## CC1=NN(c2ccc(C(=O)O)cc2)C(=O)/C1=C\c1cc(C(=O)c2ccccc2)c[nH]1 [Compound 1, (Z)-4-(4-((4-Benzoyl-1H-pyrrol-2-yl)methylene)-3-methyl-5-oxo-4,5-dihydro-1H-pyrazol-1-yl)benzoic Acid]
KAT8; [1]
  IC50: 90.5 ± 11.3 µM
KAT3B; [2]
  IC50: 13.6 ± 1 µM
KAT2B
  IC50: > 200 µM

## CC1=NN(c2ccc(C(=O)O)cc2)C(=O)/C1=C\c1cc(C(=O)c2ccccc2[N+](=O)[O-])c[nH]1 [Compound 2, (Z)-4-(3-Methyl-4-((4-(2-nitrobenzoyl)-1H-pyrrol-2-yl)methylene)-5-oxo-4,5-dihydro-1H-pyrazol-1-yl)benzoic Acid]
KAT8; [1]
  IC50: 86.2 ± 10 µM
KAT3B; [2]
  IC50: 9.1 ± 0.6 µM
KAT2B
  IC50: > 200 µM

## CC1=NN(c2ccc(C(=O)O)cc2)C(=O)/C1=C\c1cc(C(=O)c2cccc([N+](=O)[O-])c2)c[nH]1 [Compound 3, (Z)-4-(3-Methyl-4-((4-(3-nitrobenzoyl)-1H-pyrrol-2-yl)methylene)-5-oxo-4,5-dihydro-1H-pyrazol-1-yl)benzoic Acid]
KAT8; [1]
  IC50: > 150 µM

## CC1=NN(c2ccc(C(=O)O)cc2)C(=O)/C1=C\c1cc(C(=O)c2ccc([N+](=O)[O-])cc2)c[nH]1 [Compound 4, (Z)-4-(3-Methyl-4-((4-(4-nitrobenzoyl)-1H-pyrrol-2-yl)methylene)-5-oxo-4,5-dihydro-1H-pyrazol-1-yl)benzoic Acid]
KAT8; [1]
  IC50: > 200 µM

## CC1=NN(c2ccc(C(=O)O)cc2)C(=O)/C1=C\c1cc(C(=O)c2cccc(Cl)c2)c[nH]1 [Compound 6, (Z)-4-(4-((4-(3-Chlorobenzoyl)-1H-pyrrol-2-yl)methylene)-3-methyl-5-oxo-4,5-dihydro-1H-pyrazol-1-yl)benzoic Acid]
KAT8; [1]
  IC50: > 150 µM

## CC1=NN(c2ccc(C(=O)O)cc2)C(=O)/C1=C\c1cc(C(=O)c2ccc(Cl)cc2)c[nH]1 [Compound 7, (Z)-4-(4-((4-(4-Chlorobenzoyl)-1H-pyrrol-2-yl)methylene)-3-methyl-5-oxo-4,5-dihydro-1H-pyrazol-1-yl)benzoic Acid]
KAT8; [1]
  IC50: > 200 µM

## CC1=NN(c2ccc(C(=O)O)cc2)C(=O)/C1=C\c1cc(C(=O)c2ccccc2F)c[nH]1 [Compound 8, (Z)-4-(4-((4-(2-Fluorobenzoyl)-1H-pyrrol-2-yl)methylene)-3-methyl-5-oxo-4,5-dihydro-1H-pyrazol-1-yl)benzoic Acid]
KAT8; [1]
  IC50: > 150 µM

## CC1=NN(c2ccc(C(=O)O)cc2)C(=O)/C1=C\c1cc(C(=O)c2cccc(F)c2)c[nH]1 [Compound 9, (Z)-4-(4-((4-(3-Fluorobenzoyl)-1H-pyrrol-2-yl)methylene)-3-methyl-5-oxo-4,5-dihydro-1H-pyrazol-1-yl)benzoic Acid]
KAT8; [1]
  IC50: > 200 µM

## COc1ccccc1C(=O)c1c[nH]c(/C=C2\C(=O)N(c3ccc(C(=O)O)cc3)N=C2C)c1 [Compound 10, (Z)-4-(4-((4-(2-Methoxybenzoyl)-1H-pyrrol-2-yl)methylene)-3-methyl-5-oxo-4,5-dihydro-1H-pyrazol-1-yl)benzoic Acid]
KAT8
  IC50: > 150 µM

## COc1cccc(C(=O)c2c[nH]c(/C=C3\C(=O)N(c4ccc(C(=O)O)cc4)N=C3C)c2)c1 [Compound 11, (Z)-4-(4-((4-(3-Methoxybenzoyl)-1H-pyrrol-2-yl)methylene)-3-methyl-5-oxo-4,5-dihydro-1H-pyrazol-1-yl)benzoic Acid]
KAT8; [1]
  IC50: > 200 µM

## CC1=NN(c2ccc(C(=O)O)cc2)C(=O)/C1=C\c1cc(C(=O)c2ccccc2O)c[nH]1 [Compound 12, (Z)-4-(4-((4-(2-Hydroxybenzoyl)-1H-pyrrol-2-yl)methylene)-3-methyl-5-oxo-4,5-dihydro-1H-pyrazol-1-yl)benzoic Acid]
KAT8; [1]
  IC50: > 200 µM

## CC1=NN(c2ccc(C(=O)O)cc2)C(=O)/C1=C\c1cc(C(=O)c2cccc(C)c2)c[nH]1 [Compound 14, (Z)-4-(3-Methyl-4-((4-(3-methylbenzoyl)-1H-pyrrol-2-yl)4ethylene)-5-oxo-4,5-dihydro-1H-pyrazol-1-yl)benzoic Acid]
KAT8; [1]
  IC50: > 200 µM

## CC(C)C1=NN(c2ccc(C(=O)O)cc2)C(=O)/C1=C\c1cc(C(=O)c2ccccc2[N+](=O)[O-])c[nH]1 [Compound 15, (Z)-4-(3-Isopropyl-4-((4-(2-nitrobenzoyl)-1H-pyrrol-2-yl)methylene)-5-oxo-4,5-dihydro-1H-pyrazol-1-yl)benzoic Acid]
KAT8
  IC50: > 150 µM
KAT2B
  IC50: > 200 µM

## CC1=NN(c2ccccc2)C(=O)/C1=C\c1cc(C(=O)c2ccccc2)c[nH]1 [Compound 16, (Z)-4-((4-Benzoyl-1H-pyrrol-2-yl)methylene)-5-methyl-2-phenyl-2,4-dihydro-3H-pyrazol-3-one]
KAT8; [1]
  IC50: > 200 µM

## CC1=NN(c2ccccc2)C(=O)/C1=C\c1cc(C(=O)c2ccccc2[N+](=O)[O-])c[nH]1 [Compound 17, (Z)-5-Methyl-4-((4-(2-nitrobenzoyl)-1H-pyrrol-2-yl)methylene)-2-phenyl-2,4-dihydro-3H-pyrazol-3-one]
KAT8; [1]
  IC50: > 200 µM

## CC1=NN(c2ccc(C(=O)O)cc2)C(=O)C1 [Compound 18]
KAT8; [1]
  IC50: > 200 µM

## CC1=NN(c2ccc(C(=O)NCCO)cc2)C(=O)/C1=C\c1ccc[nH]1 [Compound 40, (Z)-4-(4-((1H-Pyrrol-2-yl)methylene)-3-methyl-5-oxo-4,5-dihydro-1H-pyrazol-1-yl)-N-(2-hydroxyethyl)benzamide]
KAT8; [1]
  IC50: 52.2 ± 3.2 µM

## CC1=NN(c2ccc(C(=O)NCCCN3CCCC3)cc2)C(=O)/C1=C\c1ccc[nH]1 [Compound 41, (Z)-4-(4-((1H-Pyrrol-2-yl)methylene)-3-methyl-5-oxo-4,5-dihydro-1H-pyrazol-1-yl)-N-(3-(pyrrolidin-1-yl)propyl)benzamide]
KAT8; [1]
  IC50: > 200 µM

## CC1=NN(c2ccc(S(=O)(=O)O)cc2)C(=O)/C1=C\c1ccc[nH]1 [Compound 42, (Z)-4-(4-((1H-Pyrrol-2-yl)methylene)-3-methyl-5-oxo-4,5-dihydro-1H-pyrazol-1-yl)benzenesulfonic Acid]
KAT8; [1]
  IC50: 54.7 ± 4 µM

## CC1=NN(c2ccc(S(N)(=O)=O)cc2)C(=O)/C1=C\c1ccc[nH]1 [Compound 43, (Z)-4-(4-((1H-Pyrrol-2-yl)methylene)-3-methyl-5-oxo-4,5-dihydro-1H-pyrazol-1-yl)benzenesulfonamide]
KAT8; [1]
  IC50: 59.4 ± 3.7 µM
